Assay results taken from patent US20230047905A1, “COMPOUNDS AND COMPOSITIONS FOR TREATING CONDITIONS ASSOCIATED WITH STING ACTIVITY” (IFM Due, Inc., priority 2018, published 2023).

system: Human STING; assay: STING reporter assay (luciferase) in THP1-Dual KO-IFNAR2 cells activated with 2'3'cGAMP; type: cell-based; conditions: 15 μM 2'3'cGAMP, 24h, class symbols
Experimental: STING Pathway Modulation by the Compounds Described Herein was Measured Using THP1-Dual™ Cells (KO-IFNAR2).
THP1-Dual™ KO-IFNAR2 Cells (obtained from invivogen) were maintained in RPMI, 10% FCS, 5 ml P/S, 2 mM L-glut, 10 mM Hepes, and 1 mM sodium pyruvate. Compounds were spotted in empty 384 well tissue culture plates (Greiner 781182) by Echo for a final concentration of 0.0017-100 μM. Cells were plated into the TC plates at […], 2×10E6 cells/mL. For activation with STING ligand, 2′3′cGAMP (MW 718.38, obtained from Invivogen), was prepared in Optimem media.
The following solutions were prepared for each 1×384 plate: • Solution A: 2 mL Optimem with one of the following stimuli: • 60 uL of 10 mM 2′3′cGAMP ->150 μM stock • Solution B: 2 mL Optimem with 60 μL Lipofectamine 2000->Incubate 5 min at RT
2 mL of solution A and 2 ml Solution B was mixed and incubated for 20 min at room temperature (RT). 20 μL of transfection solution (A+B) was added on top of the plated cells, with a final 2′3′cGAMP concentration of 15 μM. The plates were then centrifuged immediately at 340 g for 1 minute, after which they were incubated at 37° C., 5% CO2, >98% humidity for 24h. Luciferase reporter activity was then measured. EC50 values were calculated by using standard methods known in the art.
Luciferase reporter assay: 10 μL of supernatant from the assay was transferred to white 384-plate with flat bottom and squared wells. One pouch of QUANTI-Luc™ Plus was dissolved in 25 mL of water. 100 μL of QLC Stabilizer per 25 mL of QUANTI-Luc™ Plus solution was added. 50 μL of QUANTI-Luc™ Plus/QLC solution per well was then added. Luminescence was measured on a Platereader (e.g., Spectramax I3X (Molecular Devices GF3637001)).
Luciferase reporter activity was then measured. EC50 or IC50 values were calculated by using standard methods known in the art.

SMILES	IC50
NS(=O)(=Nc1c[nH]c2cc(F)c(F)cc12)c1ccc(C(F)(F)F)cc1 (racemic) [Compound 2a]	0.2 to 1 µM
NS(=O)(=Nc1c[nH]c2cc(F)c(F)cc12)c1ccc(C(F)(F)F)cc1 (racemic) [Compound 2b]	1 to 5 µM
Cc1ccccc1S(N)(=O)=Nc1c[nH]c2ccccc12 (racemic) [Compound 110a]	5 to 100 µM
Cc1ccccc1S(N)(=O)=Nc1c[nH]c2ccccc12 (racemic) [Compound 110b]	1 to 5 µM
Cc1ccc(S(N)(=O)=Nc2c[nH]c3ccccc23)cc1 (racemic) [Compound 111a]	1 to 5 µM
Cc1ccc(S(N)(=O)=Nc2c[nH]c3ccccc23)cc1 (racemic) [Compound 111b]	5 to 100 µM

same assay, conditions: Homo sapiens, THP1-Dual, 24 h, 15 μM 2'3'cGAMP, class symbols

SMILES	IC50
N#Cc1ccc2[nH]cc(N=S(N)(=O)c3ccc(C(F)(F)F)cc3)c2c1 (racemic) [Compound 5a]	5 to 100 µM
NS(=O)(=Nc1c[nH]c2ccccc12)c1ccc(F)cc1 (racemic) [Compound 108a]	5 to 100 µM
NS(=O)(=Nc1c[nH]c2ccccc12)c1ccc(Cl)cc1 (racemic) [Compound 109a]	1 to 5 µM
CCCCc1ccc(S(N)(=O)=Nc2c[nH]nc2-c2ccccc2)cc1 (racemic) [Compound 113a]	5 to 100 µM
N#Cc1cnc2[nH]cc(N=S(N)(=O)c3ccc(C(F)(F)F)cc3)c2c1 (racemic) [Compound 114a]	5 to 100 µM
N#Cc1ccc2[nH]cc(N=S(N)(=O)c3ccc(C4CC4)cc3)c2c1 (racemic) [Compound 115a]	5 to 100 µM
CCCCc1ccc(S(N)(=O)=Nc2c[nH]c3ncc(F)cc23)cc1 (racemic) [Compound 116]	5 to 100 µM
NS(=O)(=Nc1c[nH]c2ncc(F)cc12)c1ccc(C(F)(F)F)cc1 (racemic) [Compound 117a]	5 to 100 µM
N[S@](=O)(=Nc1c[nH]c2ccccc12)c1ccc(C(F)(F)F)cc1 (single isomer, unassigned) [Compound 1a, (S or R)—N-(1H-indol-3-yl)-4-(trifluoromethyl)benzenesulfonimidamide]	1 to 5 µM
N[S@@](=O)(=Nc1c[nH]c2ccccc12)c1ccc(C(F)(F)F)cc1 (single isomer, unassigned) [Compound 1b, (R or S)—N-(1H-indol-3-yl)-4-(trifluoromethyl)benzenesulfonimidamide]	0.2 to 1 µM
NS(=O)(=Nc1c[nH]c2ccccc12)c1ccc(C(F)(F)F)cc1 (stereo not drawn) [Compound 1, N′-(1H-indol-3-yl)-4-(trifluoromethyl)benzenesulfonimidamide]	0.2 to 1 µM
NS(=O)(=Nc1c[nH]c2cc(F)c(F)cc12)c1ccc(C(F)(F)F)cc1 (stereo not drawn) [Compound 2]	1 to 5 µM
CN(C)S(=O)(=Nc1c[nH]c2ccccc12)c1ccc(C(F)(F)F)cc1 (stereo not drawn) [Compound 36, N′-(1H-indol-3-yl)-N,N-dimethyl-4-(trifluoromethyl)benzenesulfonimidamide]	5 to 100 µM
CCCCc1ccc(S(=N)(=O)Nc2ccc3[nH]ccc3c2)cc1 (stereo not drawn) [Compound 53]	5 to 100 µM
CCCCc1ccc(S(=N)(=O)Nc2ccc3cc[nH]c3c2)cc1 (stereo not drawn) [Compound 101]	5 to 100 µM
CC(C)OC(=O)NS(=O)(=Nc1c[nH]c2ccccc12)c1ccc(C(F)(F)F)cc1 (stereo not drawn) [Compound 102]	5 to 100 µM
CCOC(=O)NS(=O)(=Nc1c[nH]c2ccccc12)c1ccc(C(F)(F)F)cc1 (stereo not drawn) [Compound 103]	5 to 100 µM
CS(=O)(=O)n1cc(N=S(N)(=O)c2ccc(C(F)(F)F)cc2)c2ccccc21 (stereo not drawn) [Compound 104]	5 to 100 µM
CNS(=O)(=Nc1cn(C)c2ccccc12)c1ccc(C(F)(F)F)cc1 (stereo not drawn) [Compound 105, N-methyl-N′-(1-methyl-1H-indol-3-yl)-4-(trifluoromethyl)benzenesulfonimidamide]	5 to 100 µM
Cc1cccc(S(N)(=O)=Nc2c[nH]c3ccccc23)c1 (stereo not drawn) [Compound 106]	5 to 100 µM
COC(=O)NS(=O)(=Nc1c[nH]c2ccccc12)c1ccc(C(F)(F)F)cc1 (stereo not drawn) [Compound 107, methyl (N-(1H-indol-3-yl)-4-(trifluoromethyl)phenylsulfonimidoyl)carbamate]	5 to 100 µM
NS(=O)(=Nc1c[nH]c2ccccc12)c1ccc(F)cc1 (stereo not drawn) [Compound 108]	5 to 100 µM
NS(=O)(=Nc1c[nH]c2ccccc12)c1ccc(Cl)cc1 (stereo not drawn) [Compound 109]	1 to 5 µM
Cc1ccccc1S(N)(=O)=Nc1c[nH]c2ccccc12 (stereo not drawn) [Compound 110]	5 to 100 µM
Cc1ccc(S(N)(=O)=Nc2c[nH]c3ccccc23)cc1 (stereo not drawn) [Compound 111]	5 to 100 µM
CNS(=O)(=Nc1c[nH]c2ccccc12)c1ccc(C(F)(F)F)cc1 (stereo not drawn) [Compound 112, N′-(1H-indol-3-yl)-N-methyl-4-(trifluoromethyl)benzenesulfonimidamide]	5 to 100 µM
CCCCc1ccc(S(N)(=O)=Nc2c[nH]nc2-c2ccccc2)cc1 (stereo not drawn) [Compound 113]	5 to 100 µM
N#Cc1cnc2[nH]cc(N=S(N)(=O)c3ccc(C(F)(F)F)cc3)c2c1 (stereo not drawn) [Compound 114]	5 to 100 µM
N#Cc1ccc2[nH]cc(N=S(N)(=O)c3ccc(C4CC4)cc3)c2c1 (stereo not drawn) [Compound 115]	5 to 100 µM
NS(=O)(=Nc1c[nH]c2ncc(F)cc12)c1ccc(C(F)(F)F)cc1 (stereo not drawn) [Compound 117]	5 to 100 µM

same assay, conditions: Homo sapiens, THP1-Dual, 24 h, 15 μM 2'3'cGAMP, given as numeric bound

SMILES	IC50
N#Cc1cnc2[nH]cc(N=S(N)(=O)c3ccc(C(F)(F)F)cc3)c2c1 (racemic) [Compound 114b]	≥ 100 µM
NS(=O)(=Nc1c[nH]nc1-c1ccccc1)c1ccc(C(F)(F)F)cc1 (racemic) [Compound 119a]	≥ 100 µM
NS(=O)(=Nc1c[nH]nc1-c1ccccc1)c1ccc(C(F)(F)F)cc1 (stereo not drawn) [Compound 119]	≥ 100 µM
